Reference: ChEMBL document CHEMBL1201862, “PubChem BioAssay data set” (2004)
Each block holds one molecule with its values, some of them ahead of it. Activity calls are given as the source filed them. For most assays here, no stated cut-off is given here; in the data, actives have a measured EC50 and inactives only a lower limit.

Columns and labels:
Large T antigen = Large T antigen (Simian virus 40, UniProt P03070); type: functional, Betapolyomavirus macacae;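 further: Confirmatory-stage PubChem screen for compounds that inhibit SV40 T antigen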
Chain of Large T antigen (P03070 whole entry): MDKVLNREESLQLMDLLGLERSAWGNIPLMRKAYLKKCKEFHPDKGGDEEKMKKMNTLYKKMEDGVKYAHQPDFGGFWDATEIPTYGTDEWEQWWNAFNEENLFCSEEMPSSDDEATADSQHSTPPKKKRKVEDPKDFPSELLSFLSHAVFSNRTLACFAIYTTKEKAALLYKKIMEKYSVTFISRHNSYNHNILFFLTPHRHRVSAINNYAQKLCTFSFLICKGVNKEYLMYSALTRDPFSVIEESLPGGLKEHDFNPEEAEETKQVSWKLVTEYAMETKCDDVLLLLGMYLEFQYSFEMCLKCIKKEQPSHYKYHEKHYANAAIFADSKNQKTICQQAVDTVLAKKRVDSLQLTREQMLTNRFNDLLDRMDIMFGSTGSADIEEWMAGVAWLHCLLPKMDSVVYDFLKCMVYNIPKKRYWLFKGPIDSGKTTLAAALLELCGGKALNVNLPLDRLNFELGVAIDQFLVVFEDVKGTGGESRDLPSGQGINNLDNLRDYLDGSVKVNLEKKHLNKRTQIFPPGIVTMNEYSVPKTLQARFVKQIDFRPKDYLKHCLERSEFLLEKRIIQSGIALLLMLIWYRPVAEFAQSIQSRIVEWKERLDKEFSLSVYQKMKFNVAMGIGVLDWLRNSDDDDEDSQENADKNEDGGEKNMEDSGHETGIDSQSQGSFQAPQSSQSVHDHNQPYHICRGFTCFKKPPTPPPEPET

[1] = Luminescence Cell-Based Dose Confirmation HTS to Identify Inhibitors of Platelet Dense Granule Release. [Related pubchem assays: 1663 (Primary HTS), 1678 (Summary of Project)]; type: functional
[2] = biological target: Luciferin 4-monooxygenase (Photinus pyralis, UniProt P08659); experiment: inhibition of purified Photinus pyralis luciferase – biochemical, luminescence, dose response (AID 1891)
Chain of Luciferin 4-monooxygenase (P08659 whole entry): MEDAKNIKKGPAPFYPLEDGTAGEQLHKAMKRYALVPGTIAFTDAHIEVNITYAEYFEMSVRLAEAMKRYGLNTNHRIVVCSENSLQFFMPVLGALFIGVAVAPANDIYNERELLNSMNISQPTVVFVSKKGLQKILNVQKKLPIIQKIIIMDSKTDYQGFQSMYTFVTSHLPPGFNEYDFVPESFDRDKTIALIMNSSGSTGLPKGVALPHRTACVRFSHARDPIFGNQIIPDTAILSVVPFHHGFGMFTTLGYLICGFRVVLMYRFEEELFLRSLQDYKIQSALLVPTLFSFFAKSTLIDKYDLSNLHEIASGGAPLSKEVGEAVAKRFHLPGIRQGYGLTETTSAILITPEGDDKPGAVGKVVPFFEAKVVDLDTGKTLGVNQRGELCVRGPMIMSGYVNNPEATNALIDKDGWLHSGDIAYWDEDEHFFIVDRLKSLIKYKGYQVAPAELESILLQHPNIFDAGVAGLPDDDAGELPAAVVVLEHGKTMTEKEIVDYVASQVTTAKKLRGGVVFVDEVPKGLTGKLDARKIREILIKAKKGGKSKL

BJ [3] = experiment: BJ-TERT fibroblast viability loss – cell-based, RAS-independent, luminescence, dose response (AID 1933); type: functional; details: Homo sapiens
BJ [4] = experiment: cells; type: functional, cell-based; details: Homo sapiens
BJ [5] = experiment: BJ-TERT-LT-ST fibroblast viability loss – cell-based, RAS-independent, luminescence, dose response (AID 1935); type: functional; details: Homo sapiens;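 further: BJ fibroblasts immortalized with TERT plus LT and ST oncogenes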
[6] = DRD fibroblast viability loss – cell-based, non-viral oncogenic, luminescence, dose response (AID 1934); type: functional; details: Homo sapiens
[7] = biological target: T1, Zinc finger protein mex-5 (Caenorhabditis elegans, UniProt Q9XUB2); experiment: potency of MEX-5 RNA-binding blockers – biochemical, C. elegans, fluorescence polarization, dose response (AID 1960)
T1 sequence (Q9XUB2 whole entry): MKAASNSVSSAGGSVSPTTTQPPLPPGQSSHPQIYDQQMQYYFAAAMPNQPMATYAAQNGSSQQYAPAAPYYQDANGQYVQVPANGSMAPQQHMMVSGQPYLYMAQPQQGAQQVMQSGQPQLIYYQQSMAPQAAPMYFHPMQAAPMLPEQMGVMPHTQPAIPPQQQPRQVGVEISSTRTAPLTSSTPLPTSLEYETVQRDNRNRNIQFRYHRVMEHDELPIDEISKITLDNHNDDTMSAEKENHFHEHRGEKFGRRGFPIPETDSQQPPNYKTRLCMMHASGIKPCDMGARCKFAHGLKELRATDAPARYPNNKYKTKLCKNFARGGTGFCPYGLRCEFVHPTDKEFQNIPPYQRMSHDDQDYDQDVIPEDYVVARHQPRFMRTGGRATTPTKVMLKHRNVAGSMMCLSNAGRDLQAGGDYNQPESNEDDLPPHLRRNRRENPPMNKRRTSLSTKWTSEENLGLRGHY

[8] = biological target: T2, RNA-binding protein pos-1 (Caenorhabditis elegans, UniProt G5EF15); experiment: disruptors of C. elegans POS-1 RNA interaction – biochemical, fluorescence polarization, dose response (AID 1964);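 further: purified POS-1 fused to maltose binding protein made in E. coli; potency of compounds blocking POS-1 binding to fluorescent RNA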
T2 sequence (G5EF15 whole entry): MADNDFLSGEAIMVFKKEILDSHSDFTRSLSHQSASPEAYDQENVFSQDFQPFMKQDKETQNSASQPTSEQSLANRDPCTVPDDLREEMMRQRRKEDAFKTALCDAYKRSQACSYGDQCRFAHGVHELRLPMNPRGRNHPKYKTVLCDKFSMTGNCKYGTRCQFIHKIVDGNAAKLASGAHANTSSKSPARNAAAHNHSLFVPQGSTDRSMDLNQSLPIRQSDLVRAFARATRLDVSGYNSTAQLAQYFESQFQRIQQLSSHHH

[9] = biological target: T3, Corticotropin-releasing factor receptor 2/Corticotropin-releasing factor-binding protein (Homo sapiens, UniProt P24387+Q13324); experiment: activators of CRF receptor 2 with binding protein – uHTS hits, confirmation (AID 602473); type: functional; details: read-out: EC50_Mean
T3 sequence (Q13324 whole entry): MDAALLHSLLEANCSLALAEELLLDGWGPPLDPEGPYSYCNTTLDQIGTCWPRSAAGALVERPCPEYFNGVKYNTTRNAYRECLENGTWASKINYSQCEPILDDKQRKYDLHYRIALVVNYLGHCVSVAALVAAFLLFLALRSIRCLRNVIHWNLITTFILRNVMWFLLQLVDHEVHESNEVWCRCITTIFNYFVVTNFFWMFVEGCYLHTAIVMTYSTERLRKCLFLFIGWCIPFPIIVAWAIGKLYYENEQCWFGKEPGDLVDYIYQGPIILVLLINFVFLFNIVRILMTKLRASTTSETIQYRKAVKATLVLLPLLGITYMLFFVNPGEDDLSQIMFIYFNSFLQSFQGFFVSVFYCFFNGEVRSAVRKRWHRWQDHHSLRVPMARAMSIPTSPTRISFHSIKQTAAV
T3 sequence (P24387 whole entry): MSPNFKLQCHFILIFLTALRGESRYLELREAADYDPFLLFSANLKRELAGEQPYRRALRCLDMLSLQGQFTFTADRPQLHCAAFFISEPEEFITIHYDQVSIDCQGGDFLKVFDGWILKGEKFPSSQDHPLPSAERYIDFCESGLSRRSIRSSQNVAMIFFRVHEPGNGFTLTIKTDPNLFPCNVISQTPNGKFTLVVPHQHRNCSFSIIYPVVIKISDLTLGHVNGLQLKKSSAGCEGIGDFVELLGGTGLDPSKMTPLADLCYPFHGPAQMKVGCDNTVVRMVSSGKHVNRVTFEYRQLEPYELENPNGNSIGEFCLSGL

INS1 = experiment: INS-1E survival protection against cytokine death – cell-based, luminescence, retest, dose response (AID 449756); type: functional; details: Rattus norvegicus;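 further: cell death triggered by IL-1 beta plus TNF-alpha plus IFN-gamma mixture; protective hits raise ATP signal compared with cytokine alone wells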
[10] = biological target: T4, Heat shock factor protein 1 (Mus musculus, UniProt P38532); experiment: enhancement of HSF1-driven luciferase signal – cell-based, NIH3T3, luminescence, dose retest, confirmation (AID 435004); type: functional;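 further: stress induced by proteasome inhibitor MG132 added 30 min after compound; luciferase reporter driven by HSF1 response element in NIH3T3 cells; actives raise luminescence as potentiators of the MG132 stress response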
T4 sequence (P38532 whole entry): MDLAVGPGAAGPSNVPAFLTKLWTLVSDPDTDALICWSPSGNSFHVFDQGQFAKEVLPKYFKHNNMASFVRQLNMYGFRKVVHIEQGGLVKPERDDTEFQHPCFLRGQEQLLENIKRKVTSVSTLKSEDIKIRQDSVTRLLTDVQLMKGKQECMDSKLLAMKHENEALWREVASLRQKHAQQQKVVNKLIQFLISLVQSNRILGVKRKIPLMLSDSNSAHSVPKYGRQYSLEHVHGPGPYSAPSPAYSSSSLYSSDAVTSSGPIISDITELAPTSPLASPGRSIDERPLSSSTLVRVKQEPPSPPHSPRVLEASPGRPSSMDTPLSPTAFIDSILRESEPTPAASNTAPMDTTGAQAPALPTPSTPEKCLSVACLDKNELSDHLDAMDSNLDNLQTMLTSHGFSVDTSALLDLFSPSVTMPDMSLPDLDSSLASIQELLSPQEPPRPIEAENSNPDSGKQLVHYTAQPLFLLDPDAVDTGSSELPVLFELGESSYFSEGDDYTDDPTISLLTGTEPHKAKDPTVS

[11] = alpha-synuclein stem-loop luciferase translation blockers – H4 neuroglioma cells, luminescence, confirmation (AID 1988); type: functional, cell-based

IC50 (Large T antigen): 71.2 µM (active)
Structure (SMILES): Cc1cc2c(n1-c1ccc(C(=O)O)cc1)CCCCC2

Structure (SMILES): Cc1ccc(/C=N/NC(=O)c2nn(C)cc2Cl)cc1
EC50 [1]: 16.6 µM (active)
EC50 [2]: 19.9 µM (active)

Structure (SMILES): O=C(CCN1C(=O)/C(=C\c2ccccc2F)SC1=S)N1CCCCC1
EC50 (BJ [3]): 15.8 µM (active)
EC50 (BJ [4]): 14.4 µM (active)
EC50 (BJ [5]): > 75 µM (not active)
EC50 [6]: 15.5 µM (active)

EC50 [7]: > 300 µM (not active)
EC50 [8]: 67.9 µM (active)
Structure (SMILES): COc1ccc(NC(=O)CN2CCC(NC(=O)C3CCCCC3)CC2)c([N+](=O)[O-])c1

Structure (SMILES): O=C(C(Cc1ccccc1)n1cccc1)N1CCN(c2ncccn2)CC1 (stereo not drawn)
EC50 [1]: > 112 µM (not active)
EC50 [2]: > 112 µM (not active)

Structure (SMILES): Cc1ccc(CSC(Nc2ccc(F)cc2)=C(C#N)C#N)cc1
EC50 (BJ [3]): 14.1 µM (active)
EC50 (BJ [4]): > 150 µM (not active)
EC50 (BJ [5]): > 75 µM (not active)
EC50 [6]: 76.4 µM (active)
EC50 [9]: > 53 µM (inactive)
AC50 (INS1): 3.19 µM (active)

IC50 (Large T antigen): 53.8 µM (active)
Structure (SMILES): COc1cc(SC)ccc1C(=O)N1CCN(Cc2ccccc2)CC1

Structure (SMILES): CSc1ccc(C(=O)C2CCCN(S(=O)(=O)c3c(C)noc3C)C2)cc1 (stereo not drawn)
EC50 [1]: > 112 µM (not active)
EC50 [2]: > 112 µM (not active)

EC50 [7]: 36.2 µM (active)
EC50 [8]: 59.1 µM (active)
EC50 [10]: > 260 µM (inactive)
Structure (SMILES): O=C(Nc1ccccc1O)c1cccc(S(=O)(=O)Nc2ccccc2O)c1

IC50 (Large T antigen): 48.6 µM (active)
Structure (SMILES): Cc1ccc(S(=O)(=O)CCC(=O)Oc2ccc3c(C)cc(=O)oc3c2)cc1

Structure (SMILES): Cn1c(=O)c2c(nc(CN3CCOCC3)n2CC(=O)c2ccccc2)n(C)c1=O
EC50 [1]: 39 µM (active)
EC50 [2]: > 112 µM (not active)

EC50 [7]: > 300 µM (not active)
EC50 [8]: > 300 µM (not active)
Structure (SMILES): Cc1c(C(=O)O)cccc1-n1c(C)cc(C=O)c1C

Structure (SMILES): COc1cc(Cl)ccc1OCc1cc(C(=O)N2C[C@]3(C)C[C@H]2CC(C)(C)C3)no1
EC50 [1]: > 112 µM (not active)
EC50 [2]: 27 µM (active)

Structure (SMILES): Cc1c(Cl)cccc1NC(=O)Nc1ccc(C(=O)N2CCCC2)cc1
EC50 [1]: 30.4 µM (active)
EC50 [2]: 1.94 µM (active)

EC50 [7]: > 300 µM (not active)
EC50 [8]: > 300 µM (not active)
Structure (SMILES): Cc1ccc(S(=O)(=O)N(CCCN2CCCC2=O)Cc2cc3c(C)ccc(C)c3[nH]c2=O)cc1

Structure (SMILES): Cc1ccnc(NC(=O)c2ccoc2C)c1
EC50 [1]: 3.51 µM (active)
EC50 [2]: 17.5 µM (active)

EC50 [7]: 30.8 µM (active)
EC50 [8]: 7.37 µM (active)
Structure (SMILES): CCOC(=O)C1CCN(C(=O)c2ccc3c(c2)NC(=O)/C(=C\c2ccc(C)cc2)S3)CC1

Structure (SMILES): Oc1nc(/C=C/c2ccccc2F)nc2ccccc12
EC50 [11]: 7.23 µM (inconclusive)
EC50 (BJ [3]): 2.12 µM (active)
EC50 (BJ [4]): 45.2 µM (inconclusive)
EC50 (BJ [5]): 29.3 µM (inconclusive)
EC50 [6]: 2.25 µM (active)

Structure (SMILES): CC(=O)c1cccc(-n2nnnc2SCC(=O)N2CCCC2)c1
EC50 [1]: > 112 µM (not active)
EC50 [2]: > 112 µM (not active)

Structure (SMILES): Cc1nnc(NC(=O)CSc2cn(CCNC(=O)c3ccccc3)c3ccccc23)s1
EC50 [1]: 80 µM (active)
EC50 [2]: > 112 µM (not active)

Structure (SMILES): Cc1cccc(-c2cnn(-c3ccccc3)c2N)c1
EC50 [1]: 31.7 µM (active)
EC50 [2]: 46 µM (active)

Structure (SMILES): CC(C)(C)NC(=O)CN1CCN(C(=O)CCl)CC1
EC50 (BJ [3]): > 150 µM (not active)
EC50 (BJ [4]): > 150 µM (inconclusive)
EC50 (BJ [5]): > 150 µM (not active)
EC50 [6]: > 150 µM (not active)
